In ChEMBL document CHEMBL1201862, “PubChem BioAssay data set” (2004):
The source made the active and inactive calls. For most assays here, no stated cut-off is given here; in the data, actives have a measured EC50 and inactives only a lower limit.

Columns and labels:
[1] = growth suppression of PTEN-null colon cells, dose response, cell-based, HCT116 PTEN knockout (AID 1047); assay type: functional;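 further: HCT116 colon tumor cells with PTEN knocked out; cells exposed to compound for 60 hours before readout; potency for loss of cell viability measured by luminescence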
[2] = growth suppression of beta-catenin-knockout colon cells, dose response, cell-based, HCT116, human colon tumor (AID 1045); assay type: functional;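 further: HCT116 colon tumor cells with beta catenin knocked out; cells exposed to compound for 60 hours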
[3] = biological target: T1, Rac GTPase-activating protein 1 (Homo sapiens, UniProt Q9H0H5); assay: MgcRacGAP GTPase-activating activity inhibitors, confirmation, biochemical, ADP Hunter fluorescence, primary and confirmatory (AID 624330); assay type: functional
T1 sequence (Q9H0H5 whole entry): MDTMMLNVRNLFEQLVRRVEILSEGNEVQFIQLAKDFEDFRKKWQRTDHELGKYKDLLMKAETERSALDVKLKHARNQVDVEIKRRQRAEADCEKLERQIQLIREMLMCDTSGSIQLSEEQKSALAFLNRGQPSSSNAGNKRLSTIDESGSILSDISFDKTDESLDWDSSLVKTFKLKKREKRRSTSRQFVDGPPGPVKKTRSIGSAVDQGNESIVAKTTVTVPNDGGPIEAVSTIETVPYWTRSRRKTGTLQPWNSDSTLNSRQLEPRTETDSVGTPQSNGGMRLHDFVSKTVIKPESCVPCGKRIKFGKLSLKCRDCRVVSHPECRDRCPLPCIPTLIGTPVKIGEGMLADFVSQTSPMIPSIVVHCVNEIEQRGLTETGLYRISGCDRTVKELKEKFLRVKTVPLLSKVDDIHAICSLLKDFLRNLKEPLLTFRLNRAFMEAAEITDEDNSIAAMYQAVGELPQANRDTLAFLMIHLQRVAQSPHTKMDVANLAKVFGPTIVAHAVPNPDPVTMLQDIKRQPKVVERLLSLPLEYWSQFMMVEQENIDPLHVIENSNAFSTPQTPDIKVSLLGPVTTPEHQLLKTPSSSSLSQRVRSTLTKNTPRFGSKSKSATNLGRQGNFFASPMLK

[4] = tested on: Vero; assay: cells; assay type: functional, Chlorocebus sabaeus; conditions: Chlorocebus sabaeus, Vero
[5] = tested on: Streptococcus sp. 'group A'; assay: growth inhibition of control SK(-) GAS strain, dose response, counter-screen for streptokinase expression inhibitor project, luminescence, kanamycin, BacTiterGlo, confirmation (AID 1900); assay type: functional, organism-based
[6] = biological target: T2, Streptokinase A (Streptococcus pyogenes serotype M1, UniProt P10520); assay: S. pyogenes streptokinase expression inhibitors, potency, dose response, plasminogen activation absorbance, OD405 (AID 1914); assay type: functional, Streptococcus pyogenes M1 GAS;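 further: secreted streptokinase activity via plasminogen activation per viability signal from cell pellet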
T2 sequence (P10520 whole entry): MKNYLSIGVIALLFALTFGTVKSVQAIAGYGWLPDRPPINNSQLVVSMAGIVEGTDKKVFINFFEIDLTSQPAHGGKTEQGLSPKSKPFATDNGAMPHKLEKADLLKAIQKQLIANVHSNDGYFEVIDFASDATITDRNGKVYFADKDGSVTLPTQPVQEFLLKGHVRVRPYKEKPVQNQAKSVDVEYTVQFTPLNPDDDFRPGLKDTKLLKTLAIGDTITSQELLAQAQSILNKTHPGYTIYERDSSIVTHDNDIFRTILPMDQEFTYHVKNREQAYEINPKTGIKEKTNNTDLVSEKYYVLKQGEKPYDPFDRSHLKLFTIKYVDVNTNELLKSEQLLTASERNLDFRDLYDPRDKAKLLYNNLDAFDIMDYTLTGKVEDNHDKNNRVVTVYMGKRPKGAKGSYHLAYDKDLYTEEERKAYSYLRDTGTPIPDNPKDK

[7] = tested on: Streptococcus; assay: Group A Streptococcus viability loss, dose response, counter-screen for streptokinase expression inhibitor project, luminescence, BacTiterGlo (AID 1915); assay type: functional, organism-based;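 further: potency for reduction of bacterial viability or growth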
[8] = inhibitors of clade B AD8 Env fusion, dose response, cell-based, cherry-pick (AID 652062); assay type: functional;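 further: luciferase signal from cell-cell fusion driven by HIV-1 clade B AD8 Env; potency is for inhibitors of fusion seen as a drop in luminescence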
[9] = biological target: T3, RNA-binding protein pos-1 (Caenorhabditis elegans, UniProt G5EF15); assay: inhibitors of POS-1/mex-3 RNA binding, dose response, biochemical, fluorescence polarization (AID 1964);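 further: purified POS-1 fused to maltose binding protein made in E. coli; potency of compounds blocking POS-1 binding to fluorescent RNA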
T3 sequence (G5EF15 whole entry): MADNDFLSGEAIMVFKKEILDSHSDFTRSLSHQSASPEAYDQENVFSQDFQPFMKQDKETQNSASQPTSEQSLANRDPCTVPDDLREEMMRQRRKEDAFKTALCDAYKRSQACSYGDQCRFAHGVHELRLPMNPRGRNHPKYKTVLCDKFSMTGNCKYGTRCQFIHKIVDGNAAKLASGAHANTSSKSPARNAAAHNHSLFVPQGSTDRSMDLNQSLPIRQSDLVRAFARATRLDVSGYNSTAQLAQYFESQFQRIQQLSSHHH

[10] = biological target: T4, Zinc finger protein mex-5 (Caenorhabditis elegans, UniProt Q9XUB2); assay: MEX-5/TCR-2 RNA interaction inhibitors, dose response, biochemical, C. elegans, fluorescence polarization (AID 1960)
T4 sequence (Q9XUB2 whole entry): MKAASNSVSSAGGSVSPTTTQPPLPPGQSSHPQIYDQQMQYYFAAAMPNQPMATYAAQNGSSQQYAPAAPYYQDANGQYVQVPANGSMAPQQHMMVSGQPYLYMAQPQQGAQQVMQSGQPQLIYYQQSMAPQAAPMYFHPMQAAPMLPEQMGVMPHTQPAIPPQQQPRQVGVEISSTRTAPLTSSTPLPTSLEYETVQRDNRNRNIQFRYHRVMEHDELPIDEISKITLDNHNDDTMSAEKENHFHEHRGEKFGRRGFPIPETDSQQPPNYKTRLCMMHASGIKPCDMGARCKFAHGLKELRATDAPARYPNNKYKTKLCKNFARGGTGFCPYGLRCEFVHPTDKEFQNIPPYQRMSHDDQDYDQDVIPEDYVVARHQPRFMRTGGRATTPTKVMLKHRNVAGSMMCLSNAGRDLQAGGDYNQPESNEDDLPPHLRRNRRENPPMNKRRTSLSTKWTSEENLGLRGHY

[11] = Luminescence Cell-Based Dose Confirmation HTS to Identify Activators of 5'UTR Stem-Loop Driven Alpha-Synuclein mRNA Translation in H4 Neuroglioblastoma Cells. [Related pubchem assays: 1829 (Project Summary), 1814 (Primary HTS)]; assay type: functional
[12] = Luminescence Cell-Based Dose Response HTS to Identify Activators of Luciferase Translation or Activity in H4 […] Cells. [Related pubchem assays: 1829 (Project Summary), 1814 (Primary HTS)]; assay type: functional
[13] = tested on: H4; assay: Luminescence Cell-Based Dose Response HTS to Identify Activators of 5'UTR Stem-Loop Driven Prion Protein mRNA Translation in H4 Neuroglioblastoma Cells. [Related pubchem assays: 1829 (Project Summary), 1814 (Primary HTS)]; assay type: functional; conditions: Homo sapiens
[14] = biological target: T5, Heat shock factor protein 1 (Mus musculus, UniProt P38532); assay: inhibition of MG132-induced HSE-luciferase signal, confirmation, cell-based, NIH3T3, luminescence, dose retest (AID 2382); assay type: functional;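 further: NIH3T3 fibroblasts with HSF1-driven luciferase reporter stressed by proteasome inhibitor MG132; luminescence from HSF1-driven luciferase expression after 8 hours of MG132 stress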
T5 sequence (P38532 whole entry): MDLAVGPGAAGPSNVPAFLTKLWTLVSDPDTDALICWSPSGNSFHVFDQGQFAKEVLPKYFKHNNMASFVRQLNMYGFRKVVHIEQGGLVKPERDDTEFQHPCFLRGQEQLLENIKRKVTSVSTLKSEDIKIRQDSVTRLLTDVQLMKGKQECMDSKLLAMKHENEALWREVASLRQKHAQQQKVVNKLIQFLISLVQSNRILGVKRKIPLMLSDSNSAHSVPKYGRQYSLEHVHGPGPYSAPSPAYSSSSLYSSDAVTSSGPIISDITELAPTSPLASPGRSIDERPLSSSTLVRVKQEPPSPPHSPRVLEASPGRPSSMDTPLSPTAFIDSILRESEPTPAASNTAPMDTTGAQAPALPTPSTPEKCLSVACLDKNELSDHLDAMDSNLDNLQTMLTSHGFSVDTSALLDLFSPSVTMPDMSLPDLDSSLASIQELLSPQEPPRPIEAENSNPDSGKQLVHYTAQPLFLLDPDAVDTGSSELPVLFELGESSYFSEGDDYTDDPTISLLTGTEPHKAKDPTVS

[15] = inhibitors of intracellular T. cruzi replication, confirmation, NIH3T3 host cells, beta-gal luminescence (AID 2044); assay type: functional, cell-based;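 further: intracellular parasites grown in NIH/3T3 mouse fibroblasts as host cells; luminescent beta-galactosidase reporter signal from transgenic T. cruzi replicating inside host cells; inhibitors lower the luminescence signal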
[16] = cytotoxicity toward NIH3T3 fibroblasts, dose response, counter-screen, cell-based, ATP luminescence, mouse fibroblasts (AID 2010); assay type: functional;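 further: cells exposed to compound for about 90 hours before reading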

## O=C(Nc1ccc(F)cc1)c1nc[nH]c1C(=O)Nc1ccccc1[N+](=O)[O-]
[1]
  EC50: 3.08 µM (active)
[2]
  EC50: 4.18 µM (active)

## O=C(c1ccccc1F)N1CCN(Cc2ccc3c(c2)OCO3)CC1
[3]
  IC50: 125 µM (active)

## CN1CCN(C(=O)CCN2C(=O)/C(=C\c3ccc(Cl)cc3)SC2=S)CC1
[4]
  CC50: 15.8 µM (active)

## Cc1ccc(NCc2nnc(SCC(=O)Nc3ncc(C)s3)n2Cc2ccco2)c(C)c1
[1]
  EC50: 23.3 µM (active)
[2]
  EC50: 23.8 µM (active)

## O=C(CCN1C(=O)C2C3C=CC(C4CC34)C2C1=O)Oc1cccc2cccnc12 (stereo not given)
[1]
  EC50: 18.8 µM (active)
[2]
  EC50: 16.7 µM (active)

## Nc1c(C(=O)NCc2ccc(F)cc2)c2nc3ccccc3nc2n1CCCN1CCOCC1
[1]
  EC50: 21.5 µM (active)
[2]
  EC50: 18.9 µM (active)

## Cc1cc(/C=C2/C(=N)N3C(=NC2=O)SN=C3S(C)(=O)=O)c(C)n1-c1ccc(F)cc1
[5]
  EC50: 9.96 µM (active)
[6]
  EC50: > 150 µM (not active)
[7]
  EC50: > 150 µM (not active)

## Oc1ccc(N2CCN(Cc3cc4c(cc3Br)OCCO4)CC2)cc1
[3]
  IC50: 66.7 µM (active)

## O=C(C[C@H]1C[C@H]2c3cc(NC(=O)C4CCC4)ccc3O[C@H]2[C@H](CO)O1)NCc1ccc2c(c1)OCO2
[8]
  AC50: 4.08 µM (active)

## COCCn1c(N)c(NCc2ccccc2)c(=O)[nH]c1=O
[9]
  EC50: 5.47 µM (inconclusive)
[10]
  EC50: 3.03 µM (active)

## Cc1cc([N+](=O)[O-])cc2c1NCC1CC=CC21 (stereo not given)
[9]
  EC50: > 300 µM (not active)
[10]
  EC50: > 300 µM (not active)

## Cc1n[nH]c(C)c1S(=O)(=O)N1CCCC(C(=O)Nc2ccc(Br)cc2)C1 (stereo not given)
[9]
  EC50: > 300 µM (not active)
[11]
  EC50: > 120 µM (not active)
[12]
  EC50: > 120 µM (not active)
[13]
  EC50: > 120 µM (not active)
[10]
  EC50: > 300 µM (not active)

## COC(=O)CCC(=O)OC1(C)C(=O)C=C2C=C(C3CC3)N(c3ccc(CO)cc3)C=C2C1=O (stereo not given)
[9]
  EC50: 25.5 µM (active)
[10]
  EC50: 23.5 µM (active)

## CCOC(=O)c1c(O)cc(C)cc1Nc1ccccc1
[5]
  EC50: > 150 µM (not active)
[6]
  EC50: 139 µM (active)
[7]
  EC50: > 150 µM (not active)

## Cc1ccc(N2C(=O)NC(=O)/C(=C/c3cnn(-c4ccc(C)cc4)c3)C2=O)cc1
[9]
  EC50: > 300 µM (not active)
[10]
  EC50: 67.5 µM (active)
[14]
  EC50: > 195 µM (not active)

## Cc1cc2nc(N=C(N)NC(=O)C(C)C)nc(C)c2cc1C
[6]
  EC50: > 150 µM (not active)

## O=c1c2ccccc2nc(CSc2[nH]cnc3ncnc2-3)n1-c1ccccc1
[1]
  EC50: 14.9 µM (active)
[2]
  EC50: 28.9 µM (active)

## O=C(Nc1cccn(Cc2c(Cl)cccc2Cl)c1=O)c1ccc(Cl)cc1
[8]
  AC50: 8.74 µM (active)

## Cc1noc(/C=C/c2cccnc2)c1[N+](=O)[O-]
[15]
  EC50: 2.34 µM (active)
[16]
  EC50: 18.4 µM (active)
[4]
  CC50: 17.3 µM (active)

## OC(C/N=c1\sc2ccccc2n1CC(O)COc1ccccc1)COc1ccccc1 (stereo not given)
[5]
  EC50: 8.85 µM (active)
[6]
  EC50: 10.3 µM (active)
[7]
  EC50: > 150 µM (not active)

## COc1cc(NC(=O)CSc2ncnc3sc4c(c23)CCCC4)c(C(=O)O)cc1OC
[5]
  EC50: 20.8 µM (active)
[6]
  EC50: > 150 µM (not active)
[7]
  EC50: > 150 µM (not active)

## Cc1noc(C)c1-c1nnc(-c2ccc(OC(F)(F)F)cc2)o1
[5]
  EC50: > 150 µM (not active)
[6]
  EC50: > 150 µM (not active)
[7]
  EC50: > 150 µM (not active)

## O=C1c2cccc3c([N+](=O)[O-])ccc(c23)C(=O)N1c1nccs1
[1]
  EC50: 21.6 µM (active)
[2]
  EC50: 11.9 µM (active)

## COc1ccc(NC2CCCN(C(=O)c3csc(C)n3)C2)cc1 (stereo not given)
[3]
  IC50: 107 µM (active)

## CCN1CCN(c2cc(C)c3cc(NC(=O)c4cccc(OC)c4)ccc3n2)CC1
[11]
  EC50: 13.5 µM (active)
[12]
  EC50: 16 µM (active)
[13]
  EC50: 17.9 µM (active)
[4]
  CC50: > 25 µM (active)

## O=C1N=C(N/N=C/c2cccs2)SC1Cc1ccc(Cl)c(Cl)c1 (stereo not given)
[14]
  EC50: 21 µM (active)
[6]
  EC50: > 150 µM (not active)
[7]
  EC50: > 150 µM (not active)

## O=C(O)c1ccccc1-n1cccc1C(=O)O
[9]
  EC50: > 300 µM (not active)
[10]
  EC50: > 300 µM (not active)
